Measured values: patent US20190151315A1, “Drug For Preventing Or Treating Lactic Acidosis” (KEIO UNIVERSITY, priority 2016, published 2019)

Experiments:
Format in all cases: in vivo, mouse (C57BL/6)
MALA model mice = assay: Survival analysis in metformin-associated lactic acidosis (MALA) model mice (Test Example 1); details: for survival rate as compared to vehicle alone: 30 mg/kg oral
Excerpt: (§1) All mice used in Examples were 7- to 13-week-old wild-type C57BL/6 male mice obtained from CLEA Japan, Inc. The mice were fed ad libitum on a 12-hour light/12-hour dark cycle in a specific pathogen-free facility.
(§2) In statistical analysis in Examples, power calculation for determining a sample size was not performed. Mice that died of lactic acidosis before treatment with a vehicle or Compound A were excluded from mice to be analyzed. For a comparison of normally distributed data between groups, analysis was performed using unpaired Student's t-test. A difference in survival rate was analyzed by log-rank (Mantel-Cox) test through use of GraphPad Prism software.
In the morning and evening of day 1, and the morning of day 2, 0.25 mg/g body weight of metformin dissolved in distilled water was orally administered to 8-week-old wild-type C57BL/6 male mice to produce MALA model mice. Immediately after the metformin administration to the model mice on day 2, a vehicle (0.5% methyl cellulose; 64625; Sigma-Aldrich) or 30 mg/kg body weight of Compound A (produced in Example 1) was orally administered. After 4 hours from the oral administration, the model mice were administered with 0.4 mg/g body weight of lactic acid dissolved in 0.9% NaCl by intraperitoneal injection. Kaplan-Meier survival analysis was performed for those mice.

[1] = test system: MALA-complicated CKD model mice; assay: Survival analysis in MALA-complicated chronic kidney disease (CKD) model mice, Compound A (Test Example 2); details: for survival rate as compared to vehicle alone: 10 mg/kg oral
Excerpt: as §1, §2
(§3) 7-Week-old wild-type C57BL/6 male mice were fed ad libitum with a standard or 0.2% adenine feed for 6 weeks. The population fed with the 0.2% adenine feed was used as CKD model mice.
(§4) Further, the CKD model mice were administered with 0.5 mg/g body weight of metformin on day 1 to produce a MALA-complicated CKD mouse model. After 4 hours from the metformin administration, a whole blood sample (5 μl) was collected from the tail vein, and a blood lactate level was measured using Lactate Pro Test Meter and Lactate Pro Test Strip (Cycle Classic Imports). […] Kaplan-Meier survival analysis was performed for those mice.

[2] = test system: MALA-complicated CKD model mice; assay: Survival analysis in MALA-complicated chronic kidney disease (CKD) model mice, Compound B (Test Example 3); details: for survival rate as compared to vehicle alone: 30 mg/kg oral
Excerpt: as §1, §2, §3, §4

Row | SMILES | survival rate as compared to vehicle alone (Kaplan-Meier, FIG. 1) (MALA model mice; 30 mg/kg body weight oral, single, metformin 0.25 mg/g x3, lactic acid 0.4 mg/g i.p. after 4 hours) | survival rate as compared to vehicle alone (MALA model mice; after 24 hours) | survival rate as compared to vehicle alone (MALA model mice; after 48 hours) | survival rate as compared to vehicle alone (MALA model mice; after 72 hours) | survival rate as compared to vehicle alone (MALA model mice; after 96 hours) | survival rate as compared to vehicle alone (MALA model mice; after 120 hours) | survival rate as compared to vehicle alone (Kaplan-Meier, FIG. 2) ([1]; 10 mg/kg body weight oral, single, mice with blood lactate more than 8 mM after metformin 0.5 mg/g) | survival rate as compared to vehicle alone ([1]; after 24 hours) | survival rate as compared to vehicle alone ([1]; after 48 hours) | survival rate as compared to vehicle alone ([1]; after 72 hours) | survival rate as compared to vehicle alone (Kaplan-Meier, FIG. 3) ([2]; 30 mg/kg body weight oral, single, mice with blood lactate more than 8 mM after metformin 0.5 mg/g) | survival rate as compared to vehicle alone ([2]; after 24 hours) | survival rate as compared to vehicle alone ([2]; after 48 hours) | survival rate as compared to vehicle alone ([2]; after 72 hours)
1 | Cc1nc(CC2CCN(c3ccc(-c4ccc(CO)cc4)cc3)CC2)nc(C(=O)NCC(=O)O)c1O [Compound A, ({[5-hydroxy-2-({1-[4′-(hydroxymethyl)biphenyl-4-yl]piperidin-4-yl}methyl)-6-methylpyrimidin-4-yl]carbonyl}amino)acetic acid] | significantly high survival rate | about 1.8 fold | about 2.8 fold | about 2.6 fold | about 2.4 fold | about 2.6 fold | significantly high survival rate | about 2.9 fold | about 5.8 fold | about 5.8 fold |  |  |  | 
2 | Cc1nc(CC2CCN(c3ccc(-c4ccc(C[C@H](C)O)cc4)cc3)CC2)nc(C(=O)NCC(=O)O)c1O [Compound B, [({5-hydroxy-2-[(1-{4′-[(2S)-2-hydroxypropyl]biphenyl-4-yl}piperidin-4-yl)methyl]-6-methylpyrimidin-4-yl}carbonyl)amino]acetic acid] |  |  |  |  |  |  |  |  |  |  | significantly high survival rate | about 1.7 fold | about 2.0 fold | about 2.0 fold
